# Experimental data from patent US7208517B1, “Endothelin antagonists” (Abbott Labortories, priority 1994, dated 2007).
# Molecular target: T1, ETA Receptor (Rattus norvegicus, UniProt P26684)
# T1 construct: endogenous in cells; host or cells: MMQ rat pituitary cells (membranes)
# T1 sequence (P26684 21-426): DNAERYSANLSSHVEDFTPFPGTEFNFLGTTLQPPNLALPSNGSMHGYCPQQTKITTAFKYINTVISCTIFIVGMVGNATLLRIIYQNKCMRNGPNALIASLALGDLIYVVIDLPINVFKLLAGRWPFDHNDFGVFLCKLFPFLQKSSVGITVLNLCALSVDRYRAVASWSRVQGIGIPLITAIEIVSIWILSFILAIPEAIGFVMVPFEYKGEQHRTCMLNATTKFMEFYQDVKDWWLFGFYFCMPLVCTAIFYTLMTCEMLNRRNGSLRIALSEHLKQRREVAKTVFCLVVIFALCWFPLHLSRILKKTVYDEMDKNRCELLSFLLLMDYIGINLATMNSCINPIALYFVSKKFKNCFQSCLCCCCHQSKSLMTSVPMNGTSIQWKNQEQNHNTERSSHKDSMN
# Assay: [125I]ET-1 binding to membranes from MMQ cells (ETA receptor binding assay, Table 4)
# Conditions: test compound at 1 μM; 0.1 nM [125I]ET-1, MMQ cell membranes, 4 hours at 25° C.
# Description: Preparation of Membranes from MMQ Cells:
# MMQ [MacLeod/MacQueen/Login cell line (prolactin secreting rat pituitary cells)] cells from 150 mL culture flasks were collected by centrifugation (1000×g for 10 min) and then homogenized in 25 mL of 10 mM Hepes (pH 7.4) containing 0.25 M sucrose and protease inhibitors [3 mM EDTA, 0.1 mM PMSF, and 5 μg/mL Pepstatin A] by a micro ultrasonic cell disrupter (Kontes). The mixture was centrifuged at 1000×g for 10 min. The supernatant was collected and centrifuged at 60,000×g for 60 min. The precipitate was resuspended in 20 mM Tris, pH 7.4 containing the above protease inhibitors and centrifuged again. The final pellet was resuspended in 20 mM Tris, pH 7.4 containing protease inhibitors and stored at −80° C. until used. Protein content was determined by the Bio-Rad dye-binding protein assay.
# Binding assays were performed in 96-well microtiter plates pretreated with 0.1% BSA. […] After incubation, unbound ligands were separated from bound ligands by a vacuum filtration method using glass-fiber filter strips in PHD cell harvesters (Cambridge Technology, Inc., MA), followed by washing the filter strips with saline (1 mL) for three times. Nonspecific binding was determined in the presence of 1 μM ET-1.
row,Molecule,% Inhibition of ETA at 1 μM
1,"CCCN(C)C(=O)CN1CC(c2ccc3c(c2)CCO3)C(C(=O)O)C1c1ccc(OC)cc1 (stereo not drawn) [Example 52, trans,trans-2-(4-Methoxyphenyl)-4-(2,3-dihydrobenzofuran-5-yl)-1-(N-methyl-N-propyl)aminocarbonylmethyl)-pyrrolidine-3-carboxylic acid]",84.0%
2,"CCCN(CCN1CC(c2ccc3c(c2)OCO3)C(C(=O)O)C1c1ccc(OC)cc1)S(=O)(=O)CCOC (stereo not drawn) [Example 125, trans,trans-1-(2-(N-Propyl-N-(2-methoxyethylsulfonyl)amino)ethyl)-2-(4-methoxyphenyl)-4-(1,3-benzodioxol-5-yl)pyrrolidine-3-carboxylic acid]",97.2%
3,"CCCCN(CCCC)C(=O)CN1CC(c2ccc(OC)cc2)C(C(=O)O)C1c1ccc(OC)cc1 (stereo not drawn) [Example 149, trans,trans-1-(N,N-Di(n-butyl)aminocarbonylmethyl)-2-(4-methoxyphenyl)-4-(4-methoxyphenyl)pyrrolidine-3-carboxylic acid]",84.6%
4,"CCCCCCN(C)C(=O)CN1CC(c2ccc3c(c2)OCO3)C(C(=O)O)C1c1ccc(OC)cc1 (stereo not drawn) [Example 42, trans,trans-2-(4-Methoxyphenyl)-4-(1,3-benzodioxol-5-yl)-1-(N-methyl-N-(n-hexyl)aminocarbonylmethyl)-pyrrolidine-3-carboxylic acid]",95.2%
5,"CCCOCCN1CC(c2ccc3c(c2)OCO3)C(C(=O)O)C1c1ccc(OC)cc1 (stereo not drawn) [Example 5, trans,trans-2-(4-Methoxyphenyl)-4-(1,3-benzodioxol-5-yl)-1-(2-propoxyethyl)-pyrrolidine-3-carboxylic acid]",95.1%
6,"COc1ccc(C2C(C(=O)O)C(c3ccc4c(c3)OCO4)CN2Cc2ccc(F)cc2)cc1 (stereo not drawn) [Example 3, trans,trans-2-(4-Methoxyphenyl)-4-(1,3-benzodioxol-5-yl)-1-(4-fluorobenzyl)-pyrrolidine-3-carboxylic acid]",42.2%
7,"(2R,3R,4S)-(+)-2-(4-Methoxyphenyl)-4-(1,3-benzodioxol-5-yl)-1-(tert-butyloxycarbonyl-aminocarbonylmethyl)-pyrrolidine-3-carboxylic acid [Example 95D]",82.1%
8,"CCCCN(CCCC)C(=O)CN1CC(c2ccc3c(c2)OCO3)C(C(=O)O)C1CCOC (stereo not drawn) [Example 309, trans—trans-2-(2-Methoxyethyl)-4-(1,3-benzodioxol-5-yl)-1-[N,N-di(n-butyl)aminocarbonylmethyl]-pyrrolidine-3-carboxylic acid]",80.7%
9,"CCCN(C)C(=O)CN1CC(c2ccc3c(c2)CCC3)C(C(=O)O)C1c1ccc(OC)cc1 (stereo not drawn) [Example 142B, trans,trans-1-(N-Methyl-N-propylaminocarbonylmethyl)-2-(4-methoxyphenyl)-4-(5-indanyl)pyrrolidine-3-carboxylic acid]",78.7%
10,"CCCN(CCN1CC(c2ccc3c(c2)OCO3)C(C(=O)O)C1c1ccc(OC)cc1)S(=O)(=O)CC (stereo not drawn) [Example 128, trans,trans-1-(2-(N-Propyl-N-(ethylsulfonyl)amino)ethyl)-2-(4-methoxyphenyl)-4-(1,3-benzodioxol-5-yl)pyrrolidine-3-carboxylic acid]",95.4%
11,"COc1ccc(C2C(C(=O)O)C(c3ccc4c(c3)OCO4)CN2C/C=C/CC(C)C)cc1 (stereo not drawn) [Example 69D, trans,trans-2-(4-Methoxyphenyl)-4-(1,3-benzodioxol-5-yl)-1-N-(trans-5-methylhex-2-enyl)-pyrrolidine-3-carboxylic acid]",37.4%
12,"CCOC(=O)N(CC)CCN1CC(c2ccc3c(c2)OCO3)C(C(=O)O)C1c1ccc(OC)cc1 (stereo not drawn) [Example 305, trans—trans-2-(4-Methoxyphenyl)-4-(1,3-benzodioxol-5-yl)-1-[2-(N-ethyl-N-ethoxycarbonylamino)ethyl]-pyrrolidine-3-carboxylic acid]",87.4%
13,"CCCN(CCN1CC(c2ccc3c(c2)OCO3)C(C(=O)O)C1c1ccc(OC)cc1)C(=O)N(C)C (stereo not drawn) [Example 297, trans—trans-2-(4-Methoxyphenyl)-4-(1,3-benzodioxol-5-yl)-1-[2-(N-propyl-N-dimethylaminocarbonylamino)ethyl]-pyrrolidine-3-carboxylic acid]",84.4%
14,"COc1ccc(C2C(C(=O)O)C(c3ccc4c(c3)OCO4)CN2CCc2ccccn2)cc1 (stereo not drawn) [Example 7, trans,trans-2-(4-Methoxyphenyl)-4-(1,3-benzodioxol-5-yl)-1-[2-(2-pyridyl)ethyl]-pyrrolidine-3-carboxylic acid]",63.4%
15,"CCCCN(CCCC)C(=O)CN1CC(c2ccc(F)c(F)c2)C(C(=O)O)C1c1ccc(OC)cc1 (stereo not drawn) [Example 150, trans,trans-1-(N,N-Di(n-butyl)aminocarbonylmethyl)-2-(4-methoxyphenyl)-4-(3,4-difluorophenyl)pyrrolidine-3-carboxylic acid]",93.6%
16,"CCCCN(CCCC)C(=O)CN1CC(c2ccc3c(c2)OCO3)C(C(=O)O)C1c1ccc(CC)cc1 (stereo not drawn) [Example 307, trans—trans-2-(4-Ethylphenyl)-4-(1,3-benzodioxol-5-yl)-1-[N,N-di(n-butyl)aminocarbonylmethyl]-pyrrolidine-3-carboxylic acid]",92.2%
17,"CCCCCS(=O)(=O)N(CC)CCN1CC(c2ccc3c(c2)OCO3)C(C(=O)O)C1c1ccc(OC)cc1 (stereo not drawn) [Example 310, trans,trans-2-(4-Methoxyphenyl)-4-(1,3-benzodioxol-5-yl)-1-(2-(N-ethyl-N-n-pentanesulfonylamino)ethyl)-pyrrolidine-3-carboxylic acid]",87.1%
18,"CCCN(CCN1CC(c2ccc3c(c2)OCO3)C(C(=O)O)C1c1ccc(OC)cc1)C(=O)OCC(C)C (stereo not drawn) [Example 295, trans—trans-2-(4-Methoxyphenyl)-4-(1,3-benzodioxol-5-yl)-1-[2-(N-propyl-N-iso-butoxycarbonylamino)ethyl]-pyrrolidine-3-carboxylic acid]",93.0%
19,"CCCCN(CCCC)C(=O)CN1CC(c2ccc3c(c2)OCO3)C(C(=O)O)C1c1ccc(C(C)(C)C)cc1 (stereo not drawn) [Example 158, trans,trans-1-(N,N-Di(n-butyl)aminocarbonylmethyl)-2-(4-t-butylphenyl)-4-(1,3-benzodioxol-5-yl)pyrrolidine-3-carboxylic acid]",91.8%
20,"CCCCN(CCCC)C(=O)CN1CC(c2ccc3c(c2)OCO3)C(C(=O)O)C1C1CCC(OC)CC1 (stereo not drawn) [Example 160B, trans,trans-1-(N,N-Di(n-butyl)aminocarbonylmethyl)-2-(anti-4-methoxycyclohexyl)-4-(1,3-benzodioxol-5-yl)pyrrolidine-3-carboxylic acid]",80.3%
21,"CCCN(CCN1CC(c2ccc3c(c2)OCO3)C(C(=O)O)C1c1ccc(OC)cc1)C(=O)OC(C)(C)C (stereo not drawn) [Example 312, trans—trans-2-(4-Methoxyphenyl)-4-(1,3-benzodioxol-5-yl)-1-[2-(N-propyl-N-tert-butoxycarbonylamino)ethyl]-pyrrolidine-3-carboxylic acid]",88.2%
22,"CCCCN(CCCC)C(=O)CN1CC(c2ccc3c(c2)OCO3)C(C(=O)O)C1[C@H]1CC[C@H](OC)CC1 (stereo partly drawn) [Example 161, trans,trans-1-(N,N-Di(n-butyl)aminocarbonylmethyl)-2-(syn-4-methoxycyclohexyl)-4-(1,3-benzodioxol-5-yl)pyrrolidine-3-carboxylic acid]",93.6%
23,"COc1ccc(NC(=O)N2CC(c3ccc4c(c3)OCO4)C(C(=O)O)C2c2ccc(OC)cc2)cc1 (stereo not drawn) [Example 10, trans,trans-2-(4-Methoxyphenyl)-4-(1,3-benzodioxol-5-yl)-1-(4-methoxyphenylaminocarbonyl)-3-pyrrolidine-3-carboxylic acid]",66.1%
24,"CCCCCCCS(=O)(=O)N(CCC)CCN1CC(c2ccc3c(c2)OCO3)C(C(=O)O)C1c1ccc(OC)cc1 (stereo not drawn) [Example 304, trans,trans-2-(4-Methoxyphenyl)-4-(1,3-benzodioxol-5-yl)-1-(2-(N-propyl-N-heptanesulfonylamino)ethyl)-pyrrolidine-3-carboxylic acid]",89.7%

# Same assay, conditions: test compound at 1 μM; 0.1 nM [125I]ET-1, MMQ cell membranes, 4 hours at 25° C.; read-out: % Inhibition of ETA at 1 μM
row,Molecule,inhibition at 1 µM
1,"CCC[C@H](C(=O)N(CCC)CCC)N1C[C@H](c2ccc3c(c2)OCO3)[C@H](C(=O)O)[C@H]1c1ccc(OC)cc1 [Example 76, (2S,3S,4S)-2-(4-Methoxyphenyl)-4-(1,3-benzodioxol-5-yl)-1-((1R)-1-(N,N-dipropylaminocarbonyl)-1-butyl)pyrrolidine-3-carboxylic acid]",93.1%
